Assay results: PMC5504357, “Antifungal Potential of Copper(II), Manganese(II) and Silver(I) 1,10-Phenanthroline Chelates Against Multidrug-Resistant Fungal Species Forming the Candida haemulonii Complex: Impact on the Planktonic and Biofilm Lifestyles” (Frontiers in Microbiology, 2017)

Columns and labels:
Solubility in solvents = type: physicochemical; settings: solvents as named
Procedure: {[Cu(3,6,9-tdda)(phen)2].3H2O.EtOH}n (7). Step (i): Copper(II) acetate hydrate (1.50 g; 7.51 mmol) was dissolved in ethanol (50 mL) and the solution was added to an ethanolic solution (25 mL) of 3,6,9-trioxaundecanedioic acid (3,6,9-tddaH2) (2.84 g; […]). The light-green suspension was refluxed for 1 h, and after cooling to room temperature the light-green solid, [Cu(3,6,9-tdda)].H2O, was filtered off, washed with cold ethanol and air dried. Yield: 1.88 g (82.97%). % Calculated: C: 31.84, H: 4.68. % Found: C: 32.20, H: 4.60. […] Step (ii): [Cu(3,6,9-tdda)].H2O (1.00 g; 3.31 mmol) and phen (2.39 g; 13.26 mmol) were dissolved together in ethanol (50 mL) and the resulting dark-green mixture was refluxed for 2 h. The suspension was cooled and the green solid, {[Cu(3,6,9-tdda)(phen)2]3H2O.EtOH}n(7), was filtered off, washed with cold ethanol and air dried. Yield: 1.63 g (66.09%). % Calculated: C: 54.87, H: 5.42, N: 7.53. % Found: C: 54.65, H: 5.63, N: 7.39.
[Ag2(3,6,9-tdda)(phen)4].EtOH (16). Step (i): Silver(I) acetate (3.00 g; 17.97 mmol) was dissolved in ethanol (30 mL) and the solution was added to an ethanolic solution (25 mL) of 3,6,9-trioxaundecanedioic acid (3,6,9-tddaH2) (2.84 g; 8.95 mmol) and the orange-brown suspension refluxed for 3 h. […] Green [Ag2(3,6,9-tdda)(phen)4].EtOH (16) precipitated and was filtered off, washed with cold ethanol and air dried. Yield: 0.83 g (65.10%). % Calculated: C: 57.92, H: 4.19, N: 9.32. % Found: C: 57.75, H: […], N: 9.02. IR (KBr) νmax: 3380, 3046, 2905, 1978, 1804, 1618, 1585, 1509, 1421, 1322, 1263, 1215, 1121, 1077, 1018, 932, 890, 838, 726, 621, 465, 413 cm^−1. ^1H NMR (500 MHz, DMSO-d6, 313 K, TMS) δ = 9.12(8H, s), 8.63 (8H, d), 8.08 (8H, s), 7.91 (8H, dd), 3.74 (4H, s), 3.57 (8H, dd). ^13C NMR (125 MHz, DMSO-d6, 313 K, TMS) δ = 173.41, 151.28, 143.57, 138.03, 129.24, 127.37, 124.74, 71.44, 70.42, 69.74.

C. haemulonii complex = test: Planktonic growth, overall across all nine isolates; type: cell-based, Candida haemulonii complex; settings: geometric mean across all nine strains
Outline: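 Pooled figure: geometric mean of MICs from all nine complex isolates. Individual MICs came from 48 h, 37°C RPMI 1640 microdilution cultures (CLSI M27-A3, 0.0625-32 mg/L), judged by eye as no growth; DMSO vehicle dilutions ran alongside.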

[1] = system: Candida haemulonii complex; test: Biofilm-growing cells, overall across isolates; type: cell-based; settings: for Overall GM-bMIC: geometric mean across strains, values marked * do not include LIP Ch4 (>512)
Outline: (§1)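 Compounds, tested at the concentrations of the planktonic assays, were applied for 48 h at 37°C to 48 h-old biofilms after PBS washing. Inhibition was judged from XTT reduction, with bMIC as the minimal concentration giving 50% inhibition.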

A549 cells = test: Mammalian cell toxicity (MTT assay) and selectivity index; type: cell-based, Human; settings: MTT, 48 h incubation
Outline: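 A549 cells were exposed to compounds (0.0313–512 μg/mL) in DMEM for 48 h at 37 °C, 5% CO2. Viability was measured by MTT (3 h, dark), with formazan dissolved in DMSO and read at 450 nm. CC50 was derived, and SI calculated as A549 CC50 divided by C. haemulonii complex GM-MIC.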

Candida haemulonii [2] = test: Biofilm-growing cells, XTT assay, bMIC; type: cell-based; settings: for bMIC: mature biofilm, 48 h, 50% inhibition of metabolic activity
Outline: as §1

Candida duobushaemulonii [3] = test: Biofilm-growing cells, XTT assay, bMIC; type: cell-based; settings: for bMIC: mature biofilm, 48 h, 50% inhibition of metabolic activity
Outline: as §1

[4] = system: Candida haemulonii var. vulnera; test: Biofilm-growing cells, XTT assay, bMIC; type: cell-based; settings: for bMIC: mature biofilm, 48 h, 50% inhibition of metabolic activity
Outline: as §1

Candida haemulonii [5] = test: Planktonic growth, broth microdilution (CLSI M27-A3), MIC; type: cell-based; settings: for MIC: planktonic, 48 h, 37°C
Outline: (§2)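 Clinical isolates (nail, blood, urine) grown 48 h at 37°C in Sabouraud-dextrose, then tested by CLSI M27-A3 broth microdilution in RPMI 1640 over 0.0625-32 mg/L, 48 h at 37°C. MIC is the lowest concentration with no visible growth; geometric mean MIC calculated across all isolates.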

Candida duobushaemulonii [6] = test: as above; type: cell-based; settings: for MIC: planktonic, 48 h, 37°C
Outline: as §2

[7] = system: Candida haemulonii var. vulnera; test: as above; type: cell-based; settings: for MIC: planktonic, 48 h, 37°C
Outline: as §2

For O.O.O=C([O-])COCCOCCOCC(=O)[O-].[Ag+].[Ag+] [[Ag2(3,6,9-tdda].2H2O], the Solubility (Solubility in solvents) was “soluble in hot H2O and hot DMSO”.
In the case of O.O=C([O-])COCCOCCOCC(=O)[O-].[Cu+2] [[Cu(3,6,9-tdda)].H2O], the Solubility (Solubility in solvents) is reported as “soluble in H2O, MeOH, EtOH and insoluble in CHCl3, ethyl acetate and acetone”.
In the case of O.O.O.O=C([O-])CCCCCCCCCC(=O)[O-].[Ag+].[Ag+].c1cnc2c(c1)ccc1cccnc12.c1cnc2c(c1)ccc1cccnc12.c1cnc2c(c1)ccc1cccnc12 [compound 18, [Ag2(phen)3(udda)].3H2O], the “Overall GM-MIC” value (C. haemulonii complex) is reported as 0.27 µg/mL, the MIC (C. haemulonii complex; in μM, read-out: Overall GM-MIC) is reported as 0.26 µM and the “decrease in activity on going from planktonic to biofilm cells” value ([1]; biofilm MIC versus planktonic MIC) is reported as 46.3 fold. The “Overall GM-bMIC” value ([1]; in μM) was 12.04 µM, the “Overall GM-bMIC” value [1] was 12.34 mg/L and the “A549 (CC50)” value (A549 cells) was 13.63 µg/mL. It also gave a GM-bMIC (Candida haemulonii [2]; geometric mean, C. haemulonii isolates, values marked * do not include LIP Ch4 (>512)) of 16 mg/L, a bMIC (Candida haemulonii [2]; isolate LIP Ch4) of 32 mg/L and a bMIC (Candida haemulonii [2]; isolate LIP Ch7) of 8 mg/L. It also gave a bMIC (Candida haemulonii [2]; isolate LIP Ch14) of 16 mg/L, a GM-bMIC (Candida duobushaemulonii [3]; geometric mean, C. duobushaemulonii isolates) of 10.08 mg/L and a bMIC (Candida duobushaemulonii [3]; isolate LIP Ch1) of 16 mg/L. The bMIC (Candida duobushaemulonii [3]; isolate LIP Ch6) was 8 mg/L, the bMIC (Candida duobushaemulonii [3]; isolate LIP Ch8) was 8 mg/L and the GM-bMIC ([4]; geometric mean, C. haemulonii var. vulnera isolates) was 11.31 mg/L. The bMIC ([4]; isolate LIP Ch5) was 8 mg/L, the bMIC ([4]; isolate LIP Ch9) was 0.5 mg/L and the bMIC ([4]; isolate LIP Ch13) was 16 mg/L. It also gave a GM-MIC (Candida haemulonii [5]; geometric mean of three C. haemulonii isolates) of 0.16 µg/mL, an MIC (Candida haemulonii [5]; isolate LIP Ch4) of 0.125 µg/mL and an MIC (Candida haemulonii [5]; isolate LIP Ch7) of 0.25 µg/mL. For the same molecule, the MIC (Candida haemulonii [5]; isolate LIP Ch12) was 0.125 µg/mL, the GM-MIC (Candida duobushaemulonii [6]; geometric mean of three C. duobushaemulonii isolates) was 0.5 µg/mL and the MIC (Candida duobushaemulonii [6]; isolate LIP Ch1) was 0.5 µg/mL. It also gave an MIC (Candida duobushaemulonii [6]; isolate LIP Ch6) of 0.25 µg/mL, an MIC (Candida duobushaemulonii [6]; isolate LIP Ch8) of 1 µg/mL and a GM-MIC ([7]; geometric mean of three C. haemulonii var. vulnera isolates) of 0.25 µg/mL. For the same molecule, the MIC ([7]; isolate LIP Ch5) was 0.5 µg/mL, the MIC ([7]; isolate LIP Ch9) was 0.125 µg/mL and the MIC ([7]; isolate LIP Ch11) was 0.25 µg/mL.
